Results from patent US11834460B2, “Imide-based modulators of proteolysis and associated methods of use” (YALE UNIVERSITY, priority 2018, dated 2023).

The compounds below were run against T1, androgen receptor (AR) (Homo sapiens, UniProt P10275) (assay: AR ELISA protocol, degradation in VCaP cells). Details: 1 uM, 16 h.
T1 construct: detects endogenous levels of total androgen receptor protein; endogenous in cells; host or cells: VCaP
T1 sequence (P10275 1-920): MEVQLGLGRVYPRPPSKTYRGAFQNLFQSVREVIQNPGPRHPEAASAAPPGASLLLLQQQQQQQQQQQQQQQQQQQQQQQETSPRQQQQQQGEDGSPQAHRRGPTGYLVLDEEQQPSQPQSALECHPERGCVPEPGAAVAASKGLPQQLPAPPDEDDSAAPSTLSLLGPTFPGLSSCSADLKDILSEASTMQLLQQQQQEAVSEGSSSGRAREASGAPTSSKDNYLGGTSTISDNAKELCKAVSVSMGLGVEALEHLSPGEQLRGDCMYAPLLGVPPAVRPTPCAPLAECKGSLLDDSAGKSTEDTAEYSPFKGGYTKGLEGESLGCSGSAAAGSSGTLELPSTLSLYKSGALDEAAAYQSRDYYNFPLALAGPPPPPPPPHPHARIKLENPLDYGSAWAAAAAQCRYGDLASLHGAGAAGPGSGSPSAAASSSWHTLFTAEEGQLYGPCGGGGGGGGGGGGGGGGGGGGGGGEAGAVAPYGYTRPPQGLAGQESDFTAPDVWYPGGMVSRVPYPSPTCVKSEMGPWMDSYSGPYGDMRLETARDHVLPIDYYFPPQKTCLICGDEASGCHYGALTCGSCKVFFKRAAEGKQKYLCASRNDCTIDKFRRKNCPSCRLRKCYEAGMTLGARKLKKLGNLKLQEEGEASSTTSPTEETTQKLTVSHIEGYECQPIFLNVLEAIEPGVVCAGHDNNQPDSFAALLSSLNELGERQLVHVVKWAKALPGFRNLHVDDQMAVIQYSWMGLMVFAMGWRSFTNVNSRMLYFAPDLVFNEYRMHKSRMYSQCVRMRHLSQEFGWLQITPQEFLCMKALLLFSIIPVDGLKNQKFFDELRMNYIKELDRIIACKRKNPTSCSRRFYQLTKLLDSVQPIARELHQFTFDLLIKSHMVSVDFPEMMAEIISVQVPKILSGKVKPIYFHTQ
Format: cell-based
Design: Dmax: dose or concentration left out as unconfirmed
Protocol: (§1) In each bioassay, cells were treated with varying amounts of compounds encompassed by the present disclosure, as shown in Table 1. The degradation of the following proteins were evaluated in this study: TANK-binding kinase 1 (TBK1), estrogen receptor α (ERα), bromodomain-containing protein 4 (BRD4), androgen receptor (AR), and c-Myc.
VCaP cells were purchased from ATCC and cultured in Dulbecco's Modified Eagle's Medium (ATCC), supplemented with 10% FBS (ATCC) and Penicillin/Streptomycin (Life Technologies). DMSO control and compound treatments (0.0001 μM-1 μM) were performed in 96-well plates for 16 h. Cells were harvested, and lysed with Cell Lysis Buffer (Catalog #9803) (20 mM Tris-HCL (pH 7.5), 150 mM NaCl, 1 mM Na2EDTA, 1 mM EGTA, 1% Triton, 2.5 mM sodium pyrophosphate, 1 mM B-glycerophosphate, 1 mM Na3VO4, 1 ug/ml leupeptin. Lysates were clarified at 16,000 g for 10 minutes, and loaded into the PathScan AR ELISA (Cell Signaling Catalog #12850). The PathScan® Total Androgen Receptor Sandwich ELISA Kit is a solid phase sandwich enzyme-linked immunosorbent assay (ELISA) that detects endogenous levels of total androgen receptor protein. An Androgen Receptor Rabbit mAb has been coated onto the microwells. After incubation with cell lysates, androgen receptor protein is captured by the coated antibody. Following extensive washing, an Androgen Receptor Mouse Detection mAb is added to detect the captured androgen receptor protein. Anti-mouse IgG, HRP-linked Antibody is then used to recognize the bound detection antibody. HRP substrate, TMB, is added to develop color. The magnitude of absorbance for the developed color is proportional to the quantity of total androgen receptor protein. Antibodies in kit are custom formulations specific to kit.
In the case of `CC1(C)C(=O)N(c2ccc(C#N)c(C(F)(F)F)c2)C(=S)N1c1ccc(-c2ccc(OCCCCCNc3cccc4c3C(=O)N(C3CCC(=O)NC3=O)C4=O)cc2)cc1` (stereo not shown) [Compound 13, 4-(3-(4-(4-((5-((2-(2,6-dioxopiperidin-3-yl)-1,3-dioxo-2,3-dihydro-1H-isoindol-4-yl)amino)pentyl)oxy)phenyl)phenyl)-4,4-dimethyl-5-oxo-2-sulfanylidene-imidazolidin-1-yl)-2-(trifluoromethyl) benzonitrile], the Dmax at 1 µM is reported as > 50%.
In the case of `CC1(C)C(=O)N(c2ccc(C#N)c(C(F)(F)F)c2)C(=S)N1c1ccc(OCCOCCOCCOCCNc2cccc3c2C(=O)N(C2CCC(=O)NC2=O)C3=O)cc1` (stereo not shown) [Compound 3, 4-(3-(4-(2-(2-(2-(2-((2-(2,6-dioxopiperidin-3-yl)-1,3-dioxoisoindolin-4-yl)amino)ethoxy)ethoxy)ethoxy)ethoxy)phenyl)-4,4-dimethyl-5-oxo-2-thioxo-imidazolidin-1-yl)-2-(trifluoromethyl) benzonitrile], the Dmax at 1 µM is reported as 31 to 50%.
In the case of `CC1(C)C(=O)N(c2ccc(C#N)c(C(F)(F)F)c2)C(=S)N1c1ccc(OCCOCCNc2cccc3c2C(=O)N(C2CCC(=O)NC2=O)C3=O)cc1` (stereo not shown) [Compound 7, 4-(3-(4-(2-(2-((2-(2,6-dioxopiperidin-3-yl)-1,3-dioxoisoindolin-4-yl)amino)ethoxy)ethoxy)phenyl)-4,4-dimethyl-5-oxo-2-thioxoimidazolidin-1-yl)-2-(trifluoromethyl) benzonitrile], the Dmax at 1 µM is reported as 10 to 30%.
For `CC1(C)C(=O)N(c2ccc(C#N)c(C(F)(F)F)c2)C(=S)N1c1ccc(OCCOCCOCCNc2cccc3c2C(=O)N(C2CCC(=O)NC2=O)C3=O)cc1` (stereo not shown) [Compound 8, 4-(3-(4-(2-(2-(2-((2-(2,6-dioxopiperidin-3-yl)-1,3-dioxoisoindolin-4-yl)amino)ethoxy)ethoxy)ethoxy)phenyl)-4,4-dimethyl-5-oxo-2-thioxoimidazolidin-1-yl)-2-(trifluoromethyl) benzonitrile], the Dmax at 1 µM was 10 to 30%.
`CC1(C)C(=O)N(c2ccc(C#N)c(C(F)(F)F)c2)C(=S)N1c1ccc(OCCOCCOCCOCCOCCOCCNc2cccc3c2C(=O)N(C2CCC(=O)NC2=O)C3=O)cc1` (stereo not shown) [Compound 6, 4-(3-(4-((17-((2-(2,6-dioxopiperidin-3-yl)-1,3-dioxoisoindolin-4-yl)amino)-3,6,9,12,15-pentaoxa-heptadecyl)oxy)phenyl)-4,4-dimethyl-5-oxo-2-thioxoimidazolidin-1-yl)-2-(trifluoromethyl) benzonitrile] gave a Dmax at 1 µM of 10 to 30%.
In the case of `CC1(C)C(=O)N(c2ccc(C#N)c(C(F)(F)F)c2)C(=S)N1c1ccc(OCCCOCCOCCNc2cccc3c2C(=O)N(C2CCC(=O)NC2=O)C3=O)cc1` (stereo not shown) [Compound 9, 4-(3-(4-(3-(2-(2-((2-(2,6-dioxopiperidin-3-yl)-1,3-dioxoisoindolin-4-yl)amino)ethoxy)ethoxy)propoxy)phenyl)-4,4-dimethyl-5-oxo-2-thioxoimidazolidin-1-yl)-2-(trifluoromethyl) benzonitrile], the Dmax at 1 µM is reported as 10 to 30%.

Same assay, conditions: 16 h
For `CC1(C)C(=O)N(c2ccc(C#N)c(C(F)(F)F)c2)C(=S)N1c1ccc(OCCCOCCOCCOCCNc2cccc3c2C(=O)N(C2(C)CCC(=O)NC2=O)C3=O)cc1` (stereo not shown) [Compound 12, 4-(4,4-dimethyl-3-(4-((1-(2-(3-methyl-2,6-dioxopiperidin-3-yl)-1,3-dioxo-2,3-dihydro-1H-isoindol-4-yl)-4,7,10-trioxa-1-azatridecan-13-yl)oxy)phenyl)-5-oxo-2-sulfanylidene-imidazolidin-1-yl)-2-(trifluoromethyl) benzonitrile], the Dmax was 10 to 30%.
`CC1(C)C(=O)N(c2ccc(C#N)c(C(F)(F)F)c2)C(=S)N1c1ccc(OCCCOCCOCCOCCNc2cccc3c2C(=O)N(C2CCC(=O)NC2=O)C3=O)cc1` (stereo not shown) [Compound 1, 4-(3-(4-(3-(2-(2-(2-((2-(2,6-dioxopiperidin-3-yl)-1,3-dioxoisoindolin-4-yl)amino)ethoxy)ethoxy)ethoxy)propoxy)phenyl)-4,4-dimethyl-5-oxo-2-thioxoimidazolidin-1-yl)-2-(trifluoromethyl) benzonitrile] showed a Dmax of 10 to 30%.
`CC1(C)C(=O)N(c2ccc(C#N)c(C(F)(F)F)c2)C(=S)N1c1ccc(OCCCCOCCOCCOCCNc2cccc3c2C(=O)N(C2CCC(=O)NC2=O)C3=O)cc1` (stereo not shown) [Compound 10] was tested, and the Dmax was 31 to 50%.

The compounds below were run on c-Myc (assay: c-Myc ELISA assay protocol in 22RV-1 cells). Details: 18 h, read-out: cMyc IC50.
Format: cell-based, human
Protocol: as §1
5. c-Myc ELISA Assay Protocol
22RV-1 cells were purchased from ATCC and cultured in RPMI+10% FBS media. Cells were harvested using trypsin (Gibco #25200-114), counted and seeded at 30,000 cells/well at a volume of 75 μL/well in RPMI +10% FBS media in 96-well plates. The cells were dosed with compounds diluted in 0.1% DMSO, incubated for 18 h then washed and lysed in 50 uL RIPA buffer (50 mM Tris pH8, 150 mM NaCl, 1% Tx-100, 0.1% SDS, 0.5% sodium deoxycholate) supplemented with protease and phosphatase inhibitors. The lysates were clarified at 4000 rpm at 4° C. for 10 minutes then aliquots were added into a 96-well ELISA plate of Novex Human c-myc ELISA kit from Life Technologies Catalog #KHO2041. 50 ul of c-Myc Detection antibody was added into every well, the plates incubated at room temperature for 3 hrs, then washed with ELISA wash buffer. 100 uL of the anti-rabbit IgG-HRP secondary antibody was added to each well and incubated at room temperature for 30 minutes. The plates were washed with ELISA wash buffer, 100 μL TMB added to each well, and then monitored every 5 minutes for a color change. 100 μL of stop solution is added and the plates read at 450 nm.
In the case of `Cc1sc2c(c1C)C(c1ccc(Cl)cc1)=N[C@@H](CC(=O)NCCCNc1cccc3c1C(=O)N(C1CCC(=O)NC1=O)C3=O)c1nnc(C)n1-2` (stereo partly drawn) [Compound 25, 2-((9S)-7-(4-chlorophenyl)-4,5,13-trimethyl-3-thia-1,8,11,12-tetraazatricyclo [8.3.0.02,6]trideca-2(6),4,7,10,12-pentaen-9-yl)-N-(3-((2-(2,6-dioxopiperidin-3-yl)-1,3-dioxo-2,3-dihydro-1H-isoindol-4-yl)amino)propyl) acetamide], the IC50 is reported as > 50 nM.
In the case of `Cc1sc2c(c1C)C(c1ccc(Cl)cc1)=N[C@@H](CC(=O)Nc1ccc(OCCCOCCNc3cccc4c3C(=O)N(C3CCC(=O)NC3=O)C4=O)c(F)c1)c1nnc(C)n1-2` (stereo partly drawn) [Compound 32, 2-((9S)-7-(4-chlorophenyl)-4,5,13-trimethyl-3-thia-1,8,11,12-tetraazatricyclo [8.3.0.02,6]trideca-2(6),4,7,10, 12-pentaen-9-yl)-N-(4-(3-(2-((2-(2,6-dioxopiperidin-3-yl)-1,3-dioxo-2,3-dihydro-1H-isoindol-4-yl)amino)ethoxy)propoxy)-3-fluorophenyl) acetamide], the IC50 is reported as < 50 nM.
`Cc1sc2c(c1C)C(c1ccc(Cl)cc1)=N[C@@H](CC(=O)NCCCCCNc1cccc3c1CN(C1CCC(=O)NC1=O)C3=O)c1nnc(C)n1-2` (stereo partly drawn) [Compound 57, 2-[(9S)-7-(4-chlorophenyl)-4,5,13-trimethyl-3-thia-1,8,11,12-tetraazatricyclo [8.3.0.0^2,^6]trideca-2(6),4,7,10,12-pentaen-9-yl]-N-(5-{[2-(2,6-dioxopiperidin-3-yl)-1-oxo-2,3-dihydro-1H-isoindol-4-yl]amino}pentyl) acetamide] was tested, and the IC50 was < 50 nM.
For `Cc1sc2c(c1C)C(c1ccc(Cl)cc1)=N[C@@H](CC(=O)NCCCOCCCNc1cccc3nc(C)n(C4CCC(=O)NC4=O)c(=O)c13)c1nnc(C)n1-2` (stereo partly drawn) [Compound 58, 2-[(9S)-7-(4-chlorophenyl)-4,5,13-trimethyl-3-thia-1,8,11,12-tetraazatricyclo [8.3.0.0^2,^6]trideca-2(6),4,7,10,12-pentaen-9-yl]-N-[3-(3-{[3-(2,6-dioxopiperidin-3-yl)-2-methyl-4-oxo-3,4-dihydroquinazolin-5-yl]amino}propoxy)propyl]acetamide], the IC50 was > 50 nM.
